Our source for the Ki and EC25 values is ChEMBL document CHEMBL1132031, “4-Oxospiro[benzopyran-2,4'-piperidines] as selective alpha 1a-adrenergic receptor antagonists” (Bioorg Med Chem Lett, 1999).

Bounds are passed on as bounds.

Experiment [1] addresses T1, Alpha-1D adrenergic receptor (Homo sapiens, UniProt P25100).
T1 sequence (P25100 whole entry): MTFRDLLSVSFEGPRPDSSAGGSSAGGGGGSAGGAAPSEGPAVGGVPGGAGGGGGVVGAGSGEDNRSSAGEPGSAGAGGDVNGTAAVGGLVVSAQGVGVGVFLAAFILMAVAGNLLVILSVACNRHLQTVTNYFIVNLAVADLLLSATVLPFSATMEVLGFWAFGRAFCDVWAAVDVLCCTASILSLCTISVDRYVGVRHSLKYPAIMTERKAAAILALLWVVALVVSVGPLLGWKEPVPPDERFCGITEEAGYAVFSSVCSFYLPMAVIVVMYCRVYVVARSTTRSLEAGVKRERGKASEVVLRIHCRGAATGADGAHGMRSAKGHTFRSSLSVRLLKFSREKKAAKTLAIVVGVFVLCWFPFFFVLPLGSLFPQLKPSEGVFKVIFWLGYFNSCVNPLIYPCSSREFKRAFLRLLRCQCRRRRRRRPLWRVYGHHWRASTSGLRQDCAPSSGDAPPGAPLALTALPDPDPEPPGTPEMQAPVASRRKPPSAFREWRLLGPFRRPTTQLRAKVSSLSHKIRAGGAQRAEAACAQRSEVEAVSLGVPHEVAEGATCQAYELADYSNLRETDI
Put plainly: Displacement of [125I]HEAT from human Alpha-1D adrenergic receptor expressed in HEK cells. The class given is cell-based, HEK293. On the technique in general: In a radioligand displacement assay an active substance lowers the binding of a labelled ligand.

Experiment [2] has as its target T2, Alpha-1A adrenergic receptor (Homo sapiens, UniProt P35348).
T2 sequence (P35348 whole entry): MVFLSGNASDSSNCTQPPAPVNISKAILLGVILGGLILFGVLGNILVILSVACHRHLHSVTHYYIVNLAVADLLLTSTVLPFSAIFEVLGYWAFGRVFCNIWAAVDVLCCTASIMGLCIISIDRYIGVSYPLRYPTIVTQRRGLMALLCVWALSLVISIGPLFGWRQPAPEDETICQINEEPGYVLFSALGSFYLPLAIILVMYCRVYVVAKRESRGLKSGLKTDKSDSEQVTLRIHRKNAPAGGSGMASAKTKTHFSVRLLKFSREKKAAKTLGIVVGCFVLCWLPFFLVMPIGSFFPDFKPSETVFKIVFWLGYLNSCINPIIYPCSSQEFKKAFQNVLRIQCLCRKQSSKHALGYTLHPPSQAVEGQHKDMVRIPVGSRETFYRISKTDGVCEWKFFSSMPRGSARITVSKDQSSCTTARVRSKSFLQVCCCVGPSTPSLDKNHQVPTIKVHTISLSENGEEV
Put plainly: Displacement of [125I]HEAT from human Alpha-1C adrenergic receptor expressed in CHO cells. The class given is cell-based.

For experiment [3], the target named is T3, Alpha-1B adrenergic receptor (Homo sapiens, UniProt P35368).
T3 sequence (P35368 whole entry): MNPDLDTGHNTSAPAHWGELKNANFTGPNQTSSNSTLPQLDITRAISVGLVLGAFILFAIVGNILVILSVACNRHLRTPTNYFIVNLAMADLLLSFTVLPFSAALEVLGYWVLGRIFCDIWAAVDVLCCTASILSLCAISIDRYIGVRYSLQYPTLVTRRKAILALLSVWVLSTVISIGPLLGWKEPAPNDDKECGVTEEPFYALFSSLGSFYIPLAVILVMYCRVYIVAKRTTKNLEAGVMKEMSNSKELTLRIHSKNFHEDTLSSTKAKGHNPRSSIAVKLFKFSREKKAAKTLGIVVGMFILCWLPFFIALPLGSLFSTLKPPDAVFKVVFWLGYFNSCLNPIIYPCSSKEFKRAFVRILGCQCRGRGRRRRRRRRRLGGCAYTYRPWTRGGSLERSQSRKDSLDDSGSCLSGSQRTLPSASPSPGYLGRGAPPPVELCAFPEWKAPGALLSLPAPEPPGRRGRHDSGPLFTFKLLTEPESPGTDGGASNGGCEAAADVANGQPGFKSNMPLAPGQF
Description: Displacement of [125I]HEAT from human Alpha-1B adrenergic receptor expressed in LM cells. The class given is cell-based.

For a further experiment, the species on record is Mustela putorius furo. Put plainly: In vitro concentration required to increase the effective refractory period (ERP) above baseline was evaluated using isolated ferret papillary muscle preparations. The class given is functional. As to conditions: Muscle tissue.
In experiment [4] the target is T4, Alpha-1A adrenergic receptor (Rattus norvegicus, UniProt P43140).
T4 sequence (P43140 whole entry): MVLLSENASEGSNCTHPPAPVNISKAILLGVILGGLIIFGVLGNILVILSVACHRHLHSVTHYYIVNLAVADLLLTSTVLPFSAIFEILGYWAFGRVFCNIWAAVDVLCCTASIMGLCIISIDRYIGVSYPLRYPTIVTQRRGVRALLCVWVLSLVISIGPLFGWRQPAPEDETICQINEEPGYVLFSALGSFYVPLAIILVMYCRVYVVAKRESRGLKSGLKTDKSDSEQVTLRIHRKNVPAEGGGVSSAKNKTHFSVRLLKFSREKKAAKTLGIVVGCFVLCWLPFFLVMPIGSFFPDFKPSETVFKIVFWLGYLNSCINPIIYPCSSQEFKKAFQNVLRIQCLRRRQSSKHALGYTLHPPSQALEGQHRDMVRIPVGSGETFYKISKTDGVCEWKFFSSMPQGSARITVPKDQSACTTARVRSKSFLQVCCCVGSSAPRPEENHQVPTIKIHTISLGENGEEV
Put plainly: Binding affinity against Alpha-1A adrenergic receptor in rat prostatic tissue.

The target of experiment [5] is T2, Alpha-1A adrenergic receptor. Description: Ability to displace [125I]HEAT from cloned human Alpha-1A adrenergic receptor stably expressed in CHO cells. The class given is cell-based.
The target is the same in experiment [6]. Description: Binding affinity against Alpha-1A adrenergic receptor in human prostatic tissue.

For orientation: Ki means a dissociation constant, usually derived from enzyme kinetics or from competition with a known ligand. Lower therefore signals tighter binding. For the compound `O=C1c2ccccc2CC12CCN(CCc1cccc3ccccc13)CC2`, the Ki in experiment [1] worked out at 149 nM; in experiment [2], 31 nM; in experiment [3], 49 nM.

As to `C1=CC2(CCN(CCc3cccc4ccccc34)CC2)Oc2ccccc21`, the Ki in experiment [1] is 200 nM; in experiment [2], 71 nM; in experiment [3] it was 53 nM.

The EC25 is the concentration needed for an effect of 25%. For the compound `CS(=O)(=O)Nc1ccc2c(c1)C(=O)CC1(CCN(CCc3ccccn3)CC1)O2`, the Ki in experiment [1] is 3840 nM; in experiment [2] it was over 2000 nM; in experiment [3], over 2000 nM. The same compound displayed an EC25 in the experiment filed under Mustela putorius furo of 33 nM.

Take `Cn1cnc(S(=O)(=O)Nc2ccc3c(c2)C(=O)CC2(CCN(CCc4cccc5ccccc45)CC2)O3)c1`: the Ki in experiment [1] is 24 nM; in experiment [2] it was 8 nM; in experiment [3] it was 53 nM. Moreover, the EC25 in the experiment listed under Mustela putorius furo was over 30000 nM.

In the case of `Cc1noc(C)c1S(=O)(=O)Nc1ccc2c(c1)C(=O)CC1(CCN(CCc3cccc4ccccc34)CC1)O2`, the Ki came to 10 nM in experiment [4]; 18 nM in experiment [1]; 24 nM in experiment [3]; 0.69 nM in experiment [5]; 10 nM in experiment [6]. The same compound showed an EC25 in the experiment filed under Mustela putorius furo of over 30000 nM.

For `c1ccc2c(c1)CCC1(CCN(CCc3cccc4ccccc34)CC1)O2`, the values for the Ki in experiment [1], in experiment [2] and in experiment [3] were 99 nM, 56 nM and 55 nM, respectively.

As to `O=C1CC2(CCN(CCc3cccc4ccccc34)CC2)Oc2ccccc21`, the Ki in experiment [1] amounted to 67 nM; in experiment [2], 53 nM; in experiment [3] it was 48 nM.

On to `O=C1CC2(CCN(CCc3cccc4ccccc34)CC2)Oc2ccc(NS(=O)(=O)Cc3ccccc3)cc21`, for which the Ki in experiment [1] stood at 53 nM; in experiment [2] it was 13 nM; in experiment [3], 24 nM. Also, in the experiment filed under Mustela putorius furo, the EC25 is over 30000 nM.

For the compound `CS(=O)(=O)Nc1ccc2c(c1)OC1(CCN(CCc3ccccn3)CC1)CC2=O`, the Ki in experiment [1] was 3250 nM; in experiment [2], 1670 nM; in experiment [3], over 2000 nM. In the experiment filed under Mustela putorius furo, the EC25 amounted to 6600 nM.

`COc1ccccc1CCN1CCC2(CC1)CC(=O)c1ccc(NS(C)(=O)=O)cc1O2`: the Ki was found to be 94 nM in experiment [1], 6.5 nM in experiment [2] and 175 nM in experiment [3]. The same compound displayed an EC25 in the experiment listed under Mustela putorius furo of 3800 nM.

For `O=C1CC2(CCN(CCc3ccccn3)CC2)Oc2ccccc21`, the Ki in experiment [1] stood at 1520 nM; in experiment [2], 793 nM; in experiment [3], 1290 nM. Also, in the experiment filed under Mustela putorius furo, the EC25 came out at 160 nM.

Take `O=C1OC2(CCN(CCc3cccc4ccccc34)CC2)Cc2ccccc21`: the Ki in experiment [1] is 60 nM; in experiment [2], 45 nM; in experiment [3], 137 nM.

Turning to `Cc1[nH]c2ccccc2c1CCN1CCC2(CC1)CC(=O)c1ccc(NS(C)(=O)=O)cc1O2`, the Ki worked out at 115 nM in experiment [1], 8 nM in experiment [2] and 221 nM in experiment [3]. Further, the EC25 in the experiment filed under Mustela putorius furo was over 30000 nM.

Regarding `CS(=O)(=O)Nc1ccc2c(c1)OC1(CCN(CCc3cccc4ccccc34)CC1)CC2=O`, the Ki in experiment [1] amounted to 136 nM; in experiment [2], 20 nM; in experiment [3] it was 149 nM. In the experiment filed under Mustela putorius furo, this compound registered an EC25 of 9000 nM.
